Test systems include A549; ACHN; DLD-1; K562; M14; MOLT-4; RPMI-8226; RXF 393; SF-295; SK-MEL-28; SK-MEL-5; SK-OV-3; SNB-75; UO-31; NCI-H226; NCI-H23; OVCAR-5; HOP-18; MCF7; T47D.
Common to all, as to experiment: NCI anticancer screen, dose series, 48 h

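Five concentrations, 48 hours, 96-well plates. At the GI50, growth is halved.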 Activity calls are given as the source filed them. Rule as the data show it: active = GI50 up to about 1.1 µM and inactive = higher.

Regarding `Cn1ccnc1Cn1cc(-c2cccc(-c3cn[nH]c3)c2)cn1`, the GI50 with A549 is 39.6 µM (inactive); with ACHN, 28.1 µM (inactive); in the test with DLD-1, > 100 µM (inactive); in the test on K562 it was 55 µM (inactive); in the test with M14, > 100 µM (inactive); with MOLT-4, 63.4 µM (inactive). In addition, the GI50 in the test with RPMI-8226 is > 100 µM (inactive); in the test on RXF 393 it was 24.8 µM (inactive); with SF-295, > 100 µM (inactive); with SK-MEL-28, > 100 µM (inactive); in the test with SK-MEL-5, > 100 µM (inactive); in the test on SK-OV-3, 0.753 µM (active). Moreover, the GI50 was 23.2 µM (inactive) with SNB-75 and 19.2 µM (inactive) in the test on UO-31.

With `Cc1nc2c(n1Cc1ccc(Cl)cc1)C(=O)c1ccccc1C2=O`, the GI50 in the test with A549 is 17.4 µM (inactive); in the test on ACHN, 27 µM (inactive); with DLD-1, 4.18 µM (inactive); in the test with K562, 2.06 µM (inactive); in the test with M14 it was > 75 µM (inactive); in the test on MOLT-4, 3.14 µM (inactive). Further, the GI50 in the test with NCI-H226 was > 75 µM (inactive); with NCI-H23 it was > 75 µM (inactive); in the test on RXF 393, 33.9 µM (inactive); in the test on SF-295, 11 µM (inactive); with SK-MEL-28, > 75 µM (inactive); in the test with SK-MEL-5, 16.4 µM (inactive). The GI50 was > 75 µM (inactive) in the test on SK-OV-3, 19.9 µM (inactive) in the test with SNB-75 and > 75 µM (inactive) in the test with UO-31.

`CCc1cccc(C)c1NC(=O)CC1C(=O)Nc2ccccc2[S+]1[O-]` (configuration not stated): the GI50 in the test on A549 is 39.1 µM (inactive); in the test with ACHN, 71.6 µM (inactive); in the test with DLD-1, 47.6 µM (inactive); in the test with K562, 24.7 µM (inactive); with M14 it was 31.2 µM (inactive); in the test with MOLT-4, 37.1 µM (inactive). In addition, the GI50 is > 100 µM (inactive) in the test on NCI-H226; 31.3 µM (inactive) with NCI-H23; > 100 µM (inactive) in the test on OVCAR-5; 33 µM (inactive) in the test on RPMI-8226; 32.1 µM (inactive) in the test on SF-295; 73.1 µM (inactive) in the test with SK-MEL-28. Further, the GI50 in the test with SNB-75 was 33.5 µM (inactive); with UO-31 it was 98.2 µM (inactive).

Regarding `COc1cc([C@H]2c3cc4c(cc3[C@H](NCc3ccc([N+](=O)[O-])cc3)C3COC(=O)[C@H]32)OCO4)cc(OC)c1O` (some centres not stated), the GI50 with A549 was 0.213 µM (active); in the test with ACHN, 0.378 µM (active); with DLD-1, 2.7 µM (inactive); in the test on K562 it was 3.18 µM (inactive); with M14 it was 1.97 µM (inactive); in the test with MOLT-4, 0.106 µM (active). Besides, the GI50 in the test with NCI-H226 was 0.324 µM (active); with NCI-H23, 0.398 µM (active); with OVCAR-5, 2.89 µM (inactive); in the test with RPMI-8226 it was 0.938 µM (active); in the test with RXF 393, 3.37 µM (inactive); with SF-295, 0.681 µM (active). In addition, the GI50 was 5.45 µM (inactive) in the test with SK-MEL-28; 2.29 µM (inactive) with SK-MEL-5; 2.24 µM (inactive) with SK-OV-3; 1.45 µM (inactive) in the test on SNB-75; 1.79 µM (inactive) in the test on UO-31.

With `COC(=O)[C@H]1[C@H]2C[C@@H]3c4[nH]c5cc(OC)ccc5c4CCN3C[C@H]2C[C@@H](OC(=O)c2cc(OC)c(OC)c(OC)c2)[C@@H]1OC` [RESERPINE], the GI50 in the test on A549 was 18 µM (inactive); in the test with ACHN, 15 µM (inactive); in the test with DLD-1, 30.5 µM (inactive); in the test with K562, 7.11 µM (inactive); in the test with M14 it was 15.4 µM (inactive); in the test with MOLT-4, 7.19 µM (inactive). In addition, the GI50 was 19.6 µM (inactive) in the test on NCI-H226; 18.1 µM (inactive) with NCI-H23; 38 µM (inactive) in the test with OVCAR-5; 6.9 µM (inactive) in the test with RPMI-8226; 17.7 µM (inactive) in the test on SF-295; > 10 µM (inactive) in the test on SK-MEL-28. Moreover, the values for the GI50 with SK-MEL-5, with SNB-75 and in the test on UO-31 were 15.7 µM (inactive), 2.7 µM (inactive) and 15.1 µM (inactive), respectively.

In the case of `COc1ccccc1-n1c(N)c2c(C)c(-c3ccccc3)[nH]c2nc1=S`, the GI50 is 5.74 µM (inactive) in the test on A549; > 100 µM (inactive) with ACHN; > 100 µM (inactive) in the test with DLD-1; 4.04 µM (inactive) with HOP-18; > 100 µM (inactive) with K562; > 100 µM (inactive) in the test on M14. The GI50 with MOLT-4 is > 100 µM (inactive); in the test with NCI-H226, 63 µM (inactive); with NCI-H23, 79.4 µM (inactive); in the test with OVCAR-5, > 100 µM (inactive); in the test on RPMI-8226, 50.2 µM (inactive); in the test with SK-MEL-28 it was > 100 µM (inactive). The GI50 is 4.76 µM (inactive) in the test with SK-MEL-5, 59.3 µM (inactive) in the test with SNB-75 and > 100 µM (inactive) in the test on UO-31.

Consider `N#Cc1c2c(c(N=[N+]=[N-])n3c1nc1ccccc13)CCCC2`, for which the GI50 in the test with A549 was 4.67 µM (inactive); in the test on ACHN it was 2.16 µM (inactive); in the test on DLD-1 it was 1.39 µM (inactive); with K562, 2.16 µM (inactive); in the test with M14, 1.93 µM (inactive); in the test with MOLT-4, 1.62 µM (inactive). Moreover, the GI50 in the test with NCI-H226 is 1.73 µM (inactive); in the test on NCI-H23, 2.55 µM (inactive); in the test with OVCAR-5 it was 6.07 µM (inactive); in the test on RPMI-8226 it was 1.71 µM (inactive); in the test with RXF 393 it was 1.77 µM (inactive); with SF-295, 2.05 µM (inactive). The GI50 in the test with SK-MEL-28 was 4.12 µM (inactive); with SK-MEL-5, 18.3 µM (inactive); in the test on SK-OV-3, 1.8 µM (inactive); with SNB-75, 1.97 µM (inactive); in the test with UO-31, 1.94 µM (inactive).

As for `COC(=O)C1C=CCON2CCc3c(n(C)c4ccccc34)C12` (configuration not stated), the GI50 in the test with A549, in the test with ACHN, with DLD-1, with K562, with M14 and in the test with MOLT-4 was > 100 µM (inactive) throughout. Moreover, the GI50 with NCI-H226, in the test on NCI-H23, in the test with OVCAR-5, in the test with RPMI-8226, in the test with RXF 393 and with SF-295 was > 100 µM (inactive) each time. For the same compound, the GI50 was > 100 µM (inactive) in the test on SK-MEL-28; > 100 µM (inactive) in the test on SK-MEL-5; > 100 µM (inactive) in the test with SK-OV-3; 88.1 µM (inactive) in the test with SNB-75; > 100 µM (inactive) in the test on UO-31.

Consider `CCCCOC(=O)NC(=O)c1cn(C2CCCCC2)c(=O)[nH]c1=O`, for which the GI50 in the test on A549 was 38.5 µM (inactive); in the test on ACHN, 32.2 µM (inactive); in the test on DLD-1, 36.9 µM (inactive); with HOP-18, 19.4 µM (inactive); in the test with K562, > 100 µM (inactive); with M14, 50.7 µM (inactive). In addition, the GI50 with MOLT-4 is 98.6 µM (inactive); in the test with NCI-H226, 20.3 µM (inactive); in the test on NCI-H23, 33 µM (inactive); with OVCAR-5 it was > 100 µM (inactive); with RPMI-8226 it was 60.8 µM (inactive); with SF-295 it was 54.3 µM (inactive). The GI50 in the test on SK-MEL-28 is 39.8 µM (inactive); with SK-OV-3, 20.9 µM (inactive); with UO-31, 21.3 µM (inactive).

As for `CNc1nnnn1C1OC(CO)C(O)C1O` (configuration not stated), the GI50 with A549, with ACHN, in the test on DLD-1, with K562, in the test on M14 and in the test with MOLT-4 was > 100 µM (inactive) in each case. The GI50 with NCI-H226 was > 100 µM (inactive); with OVCAR-5, > 100 µM (inactive); in the test on RPMI-8226 it was > 100 µM (inactive); with RXF 393, 43.9 µM (inactive); in the test with SF-295 it was > 100 µM (inactive); in the test with SK-MEL-5 it was > 100 µM (inactive). The GI50 with SK-OV-3, in the test on SNB-75 and in the test on UO-31 was > 100 µM (inactive) in each case.

On to `CCN(CC)C(=O)CC12CCCCC1=Nc1ccccc12` (configuration not stated), for which the GI50 in the test with A549, with ACHN, with DLD-1, in the test on HOP-18, in the test on K562 and in the test with M14 was > 100 µM (inactive) each time. The GI50 with MOLT-4, in the test on NCI-H23, in the test on OVCAR-5, in the test on RPMI-8226, in the test on SF-295 and with SK-MEL-28 was > 100 µM (inactive) in each case. The GI50 in the test on SK-MEL-5, in the test with SK-OV-3 and in the test with SNB-75 was > 100 µM (inactive) each time.

Regarding `CC1(C)COC2=C(C1)C(=O)c1ccccc1C2=O`, the GI50 in the test with A549 is 2.26 µM (inactive); with ACHN, 1.55 µM (inactive); in the test on K562, 0.102 µM (active); with M14, 1.61 µM (inactive); with MCF7 it was 1.21 µM (inactive); in the test with MOLT-4 it was 1.5 µM (inactive). Moreover, the GI50 with NCI-H226 was 2.24 µM (inactive); in the test with NCI-H23, 1.54 µM (inactive); in the test with OVCAR-5, 1.69 µM (inactive); with RPMI-8226, 1.32 µM (inactive); in the test on RXF 393, 2.02 µM (inactive); in the test with SF-295, 1.63 µM (inactive). The GI50 with SK-MEL-28 is 1.64 µM (inactive); in the test with SK-MEL-5 it was 0.71 µM (active); with SK-OV-3, 1.88 µM (inactive); in the test on SNB-75 it was 1.63 µM (inactive); in the test with T47D, 0.558 µM (active); in the test with UO-31 it was 1.04 µM (active).

These data come from ChEMBL document CHEMBL1201862, “PubChem BioAssay data set” (2004).
